Measurements reported in patent US20250236619A1, “FUSED BICYCLIC COMPOUND CONTAINING PYRROLINONE” (CHIA TAI TIANQING PHARMACEUTICAL GROUP CO., LTD., priority 2022, published 2025).
Where two headings read alike, the source gives them in different places.

Columns and labels:
HPK1 kinase = HPK1 kinase (Homo sapiens (Human), UniProt Q92918); test: Assay for in vitro inhibitory activity against HPK1 kinase; type: biochemical; conditions: HPK1 1 ng/μL, ATP 1 mM, STK Substrate 1-biotin 500 nM
Procedure: Experimental Example 1: Assay for In Vitro Inhibitory Activity Against HPK1 Kinase A kinase buffer (Enzymatic buffer 5×) was diluted to 1×, and 10 mM MgCl2, 1 mM DTT, and 0.005% Tween 20 were added. A 100 ng/μL HPK1 (Life technology) stock solution was diluted with the kinase buffer to obtain a 1.67×, 1.67 ng/μL working solution (final concentration: 1 ng/μL), and the working solution was seeded in a 384-well plate at 6 μL/well. Different compounds dissolved in DMSO were added to the wells using a nanoliter pipettor to obtain final concentrations of the compounds of 1000 nM to 0.244 nM (4-fold serial dilution, 7 concentrations in total), and blank control wells (without enzyme) and negative control wells (with enzyme, plus vehicle DMSO) were set; the wells were set in duplicate. After the enzyme and the compounds were incubated at room temperature for 1 h, a 5×, 5 mM ATP dilution (final concentration: 1 mM) in the kinase buffer was mixed with a 5×, […] substrate (Cisbio, STK Substrate 1-biotin; final concentration: 500 nM) in equal volume, and the mixture was added to the plate at 4 µL/well. The plate was sealed with a film and then incubated at room temperature for 2 h. An assay antibody solution was prepared by mixing the antibody STK Antibody-cryptate (Cisbio, 5 μL/test) and a 4×, 500 nM Streptavidin-XL665 (Cisbio; final concentration: 125 nM) in equal volume and added to the plate at 10 μL/well. The plate was incubated at room temperature for 1 h. The signal values (excitation: […]) were measured using a PE Envision multimode microplate reader, and IC50 was calculated by four-parameter fitting.

[1] = system: p-SLP76 phosphorylation of Jurkat cells; test: Assay for inhibitory activity against p-SLP76 phosphorylation of Jurkat cells; type: cell-based; conditions: stimulator CD3CD28, 30 min, read-out: IC50 (nM) for inhibition of p-SLP76 phosphorylation of Jurkat cells
Procedure: 2.1 Assay for Inhibitory Activity Against p-SLP76 Phosphorylation of Jurkat Cells
Jurkat cells in a good growth state were added to a centrifuge tube, centrifuged, and resuspended. The cell density was adjusted to 6.25×10^6 cells/mL, and the cells were seeded in a 384-well small-volume white plate at […]. Different compounds dissolved in DMSO were added to the wells using a nanoliter pipettor to obtain final concentrations of the compounds of 2500 nM to 10.29 nM, and a control was set; the wells were set in duplicate. After 1 h of cell culture, the stimulator CD3CD28 (manufacturer: stemcell, 4 μL) was added and the cells were incubated at 37° C. for 30 min. 3 μL of lysis buffer (manufacturer: BioAuxilium) was added to each well, and the plate was shaken at room temperature for 30 min. After the lysate was well mixed, 5 μL of pre-mixed antibody (manufacturer: BioAuxilium) in assay buffer was added and the plate was incubated overnight at room temperature. The signal values were measured on a PerkinElmer Envision multimode microplate reader (excitation: 320 nm, emission: 615 nm/665 nm), and IC50 was calculated by four-parameter filling.

Sequence of HPK1 kinase (Q92918 whole entry): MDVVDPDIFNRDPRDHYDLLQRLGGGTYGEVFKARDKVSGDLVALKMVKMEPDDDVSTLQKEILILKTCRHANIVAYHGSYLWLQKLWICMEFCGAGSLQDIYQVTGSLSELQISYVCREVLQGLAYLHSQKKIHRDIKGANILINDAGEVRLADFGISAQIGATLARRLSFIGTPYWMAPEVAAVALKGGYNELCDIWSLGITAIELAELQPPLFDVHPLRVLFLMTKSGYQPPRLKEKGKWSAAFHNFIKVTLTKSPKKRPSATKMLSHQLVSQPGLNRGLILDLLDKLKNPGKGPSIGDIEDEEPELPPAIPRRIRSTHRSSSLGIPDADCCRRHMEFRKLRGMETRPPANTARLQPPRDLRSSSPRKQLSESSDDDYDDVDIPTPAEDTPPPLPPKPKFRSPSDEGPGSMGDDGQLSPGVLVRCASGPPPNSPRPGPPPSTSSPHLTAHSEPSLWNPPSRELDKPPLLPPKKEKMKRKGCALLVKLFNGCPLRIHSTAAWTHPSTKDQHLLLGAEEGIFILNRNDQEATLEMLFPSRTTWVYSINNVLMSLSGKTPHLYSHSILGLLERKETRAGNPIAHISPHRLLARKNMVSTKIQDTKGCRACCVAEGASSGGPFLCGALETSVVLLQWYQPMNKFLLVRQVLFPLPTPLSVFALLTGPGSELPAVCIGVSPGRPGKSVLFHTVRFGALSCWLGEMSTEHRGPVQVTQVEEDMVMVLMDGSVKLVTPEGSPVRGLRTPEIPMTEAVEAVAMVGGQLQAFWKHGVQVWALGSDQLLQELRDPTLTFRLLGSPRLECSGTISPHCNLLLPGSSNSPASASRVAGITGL

Row | Structure (SMILES) | IC50 ([1]; Homo sapiens, 0.5 h) [nM] | IC50 (HPK1 kinase) [nM] | IC50 [1] [nM]
1 | CN(C)Cc1nc(Nc2cnc(-c3ccnc4c3c3c(n4C)CCC3)c3c2C(=O)NC3)ccc1C1CCOCC1 [Compound I-6] | < 50 | 2.5 | –
2 | CN(C)Cc1nc(Nc2cnc(-c3ccnc4c3c3c(n4C)CCC3)c3c2C(=O)NC3)ccc1C1(O)CCOCC1 [Compound I-10] | 50 to 100 | 5.6 | –
3 | CN(C)Cc1nc(Nc2ccc(-c3cnn4ccc5ccoc5c34)c3c2C(=O)NC3)ccc1C1CCOCC1 [Compound I-11] | – | 1.6 | –
4 | CN(C)Cc1nc(Nc2ccc(-c3ccnc4c3c3c(n4C)CCC3)c3c2C(=O)NC3)ccc1N1CC[C@@H](O)C1 [Compound I-12] | – | 5.1 | –
5 | CN(C)Cc1nc(Nc2cnc(-c3ccnc4c3c3c(n4C)CCC3)c3c2C(=O)NC3)ccc1N1CCOCC1 [Compound I-13] | – | 3.5 | –
6 | [2H]C([2H])([2H])N(Cc1nc(Nc2cnc(-c3ccnc4c3c3c(n4C)CCC3)c3c2C(=O)NC3)ccc1C1CCOCC1)C([2H])([2H])[2H] [Compound I-14] | – | 1.4 | –
7 | [2H]C([2H])(c1nc(Nc2cnc(-c3ccnc4c3c3c(n4C)CCC3)c3c2C(=O)NC3)ccc1C1CCOCC1)N(C)C [Compound I-17] | < 50 | – | –
8 | CN(C)Cc1nc(Nc2ccc(-c3nnc4ccc5c(n34)CCC5)c3c2C(=O)NC3)ccc1C1CCOCC1 [Compound I-18] | – | 9.8 | –
9 | CN(C)Cc1nc(Nc2ccc(-c3ncnc4c3c3c(n4C)CCC3)c3c2C(=O)NC3)ccc1C1CCOCC1 [Compound I-20] | – | 3.2 | –
10 | CN(C)Cc1nc(Nc2ccc(-c3ncnc4[nH]c5ccccc5c34)c3c2C(=O)NC3)ccc1C1CCOCC1 [Compound I-22] | – | 7.5 | 50 to 100
11 | CN(C)Cc1nc(Nc2ccc(-c3nnc4cc5c(nn34)CCC5)c3c2C(=O)NC3)ccc1C1CCOCC1 [Compound I-26] | – | 16 | –
12 | CN(C)Cc1nc(Nc2ccc(-c3nnc4cc5c(cn34)CCC5)c3c2C(=O)NC3)ccc1C1CCOCC1 [Compound I-27] | – | 23 | –
13 | CN(C)Cc1nc(Nc2ccc(-c3cnn4cc5c(nc34)CCC5)c3c2C(=O)NC3)ccc1C1CCOCC1 [Compound I-30] | – | 3.6 | 50 to 100
14 | CN(C)Cc1nc(Nc2ccc(-c3cnc4ccc5c(ccn5C)n34)c3c2C(=O)NC3)ccc1C1CCOCC1 [Compound I-32] | – | 4.4 | < 50
15 | CN(C)Cc1nc(Nc2ccc(-c3nnc4ccc5occc5n34)c3c2C(=O)NC3)ccc1C1CCOCC1 [Compound I-33] | – | 2.9 | < 50
16 | CN(C)Cc1nc(Nc2ccc(-c3nnc4ccc5c(n34)OCC5)c3c2C(=O)NC3)ccc1C1CCOCC1 [Compound I-36] | – | 5.3 | 50 to 100
17 | CN(C)Cc1nc(Nc2cnc(-c3cnc4ccc5sccc5n34)c3c2C(=O)NC3)ccc1C1CCOCC1 [Compound I-41] | – | 18 | –
18 | CN(C)Cc1nc(Nc2ccc(-c3cnc4n3C3CC3C4)c3c2C(=O)NC3)ccc1C1CCOCC1 (stereo not drawn) [Compound I-43] | – | 16 | –
19 | CN(C)Cc1nc(Nc2cnc(-c3cnn4ccc5occc5c34)c3c2C(=O)NC3)ccc1N1CCOCC1 [Compound I-47] | < 50 | – | –

Row | Structure (SMILES) | IC50 ([1]; Homo sapiens, 0.5 h) [nM] | IC50 (HPK1 kinase) [nM] | IC50 [1] [nM]
20 | CN(C)Cc1nc(Nc2ccc(-c3cnn4ccc5occc5c34)c3c2C(=O)NC3)ccc1N1CCN(C)C1=O [Compound I-49] | – | 6.1 | < 50
21 | CN(C)Cc1nc(Nc2ccc(-c3cnn4ccc5occc5c34)c3c2C(=O)NC3)ccc1N1CCCC1=O [Compound I-51] | – | 5.8 | < 50
22 | CN(C)Cc1nc(Nc2ccc(-c3cnc4ccc5occc5n34)c3c2C(=O)NC3)ccc1N1CCCC1=O [Compound I-52] | < 50 | – | –
23 | [2H]C([2H])(c1nc(Nc2ccc(-c3cnn4c3CC3(CC3)C4)c3c2C(=O)NC3)ccc1C1CCOCC1)N(C)C [Compound I-53] | < 50 | – | –
24 | CN(C)Cc1nc(Nc2ccc(-c3cnn4ccc5occc5c34)c3c2C(=O)NC3)ccc1C1CC(=O)N(C)C1 (stereo not drawn) [Compound I-59] | < 50 | – | –
25 | CN(C)Cc1nc(Nc2ccc(-c3cnn4ccc5occc5c34)c3c2C(=O)NC3)ccc1C1CCN(C)C(=O)C1 (stereo not drawn) [Compound I-60] | < 50 | 2.8 | –
26 | CN(C)Cc1nc(Nc2ccc(-c3cnc4cnc5occc5n34)c3c2C(=O)NC3)ccc1C1CCN(C)C(=O)C1 (stereo not drawn) [Compound I-61] | 50 to 100 | – | –
27 | CN(C)Cc1nc(Nc2ccc(-c3cnn4ccc5occc5c34)c3c2C(=O)NC3)ccc1C1CCCO1 (stereo not drawn) [Compound I-64] | < 50 | – | –
28 | CN(C)Cc1nc(Nc2ccc(-c3cnn4c3CC3(CC3)C4)c3c2C(=O)NC3)ccc1C1CCN(C)C(=O)C1 (stereo not drawn) [Compound I-67] | < 50 | – | –
29 | CN(C)Cc1nc(Nc2ccc(-c3cnc4cnc5occc5n34)c3c2C(=O)NC3)ccc1[C@@H]1CCN(C)C(=O)C1 [Compound I-68] | – | 7.7 | –
30 | CN(C)Cc1nc(Nc2ccc(-c3cnc4cnc5occc5n34)c3c2C(=O)NC3)ccc1[C@H]1CCN(C)C(=O)C1 [Compound I-69] | – | 3.7 | < 50
31 | CC(=O)N(C)c1ccc(Nc2ccc(-c3cnn4ccc5occc5c34)c3c2C(=O)NC3)nc1CN(C)C [Compound I-70] | < 50 | – | –
32 | CN(C)Cc1nc(Nc2ccc(-c3cnc4ccc5occc5n34)c3c2C(=O)NC3)ccc1[C@H]1CCN(C)C(=O)C1 [Compound I-72] | – | 3.7 | < 50
33 | CN(C)Cc1nc(Nc2ccc(-c3cnc4ccc5occc5n34)c3c2C(=O)NC3)ccc1[C@@H]1CCN(C)C(=O)C1 [Compound I-73] | – | 2.9 | < 50
34 | CN(C)Cc1nc(Nc2ccc(-c3cnn4c3CC3(CC3)C4)c3c2C(=O)NC3)ccc1N1CCN(C)C(=O)C1 [Compound I-75] | – | 3.4 | 50 to 100
35 | CN(C)Cc1nc(Nc2ccc(-c3cnn4ccc5occc5c34)c3c2C(=O)NC3)ccc1N1CCN(C)C(=O)C1 [Compound I-76] | < 50 | – | –
36 | CN(C)Cc1nc(Nc2ccc(-c3cnn4ccc5occc5c34)c3c2C(=O)NC3)ccc1-c1ccn(C)c(=O)c1 [Compound I-81] | < 50 | – | –
37 | CN(C)Cc1nc(Nc2ccc(-c3ccnc4c3cc3n4CCC3)c3c2C(=O)NC3)ccc1C1CCN(C)C(=O)C1 (stereo not drawn) [Compound I-82] | – | 3 | –
38 | CNCc1nc(Nc2ccc(-c3cnn4ccc5occc5c34)c3c2C(=O)NC3)sc1C1CCOCC1 [Compound I-85] | < 50 | – | –

Second part, led by results:

Row | IC50 ([1]; Homo sapiens, 0.5 h) [nM] | Structure (SMILES) | IC50 (HPK1 kinase) [nM] | IC50 [1] [nM]
39 | < 50 | CN(C)Cc1nc(Nc2ccc(-c3ccnc4c3c3c(n4C)CCC3)c3c2C(=O)NC3)ccc1C1CCOC1 (stereo not drawn) [Compound I-8] | 3.1 | –
40 | 50 to 100 | CN(C)Cc1nc(Nc2ccc(-c3ncnc4[nH]c5c(c34)CCC5)c3c2C(=O)NC3)ccc1C1CCOCC1 [Compound I-24] | – | –
41 | < 50 | CN(C)Cc1nc(Nc2ccc(-c3cnc4ccc5occc5n34)c3c2C(=O)NC3)ccc1C1CCOCC1 [Compound I-28] | 2 | –
42 | < 50 | CN(C)Cc1nc(Nc2ccc(-c3cnn4c3CC3(CC3)C4)c3c2C(=O)NC3)ccc1C1CCOCC1 [Compound I-34] | – | –
43 | 50 to 100 | CN(C)Cc1nc(Nc2ccc(-c3cnc4ccc5c(n34)CCO5)c3c2C(=O)NC3)ccc1C1CCOCC1 [Compound I-35] | – | –
44 | < 50 | CN(C)Cc1nc(Nc2ccc(-c3cnn4ccc5occc5c34)c3c2C(=O)NC3)ccc1C1CCOCC1 [Compound I-38] | – | –
45 | < 50 | CN(C)Cc1nc(Nc2ccc(-c3cnc4ccc5c(n34)OCC5)c3c2C(=O)NC3)ccc1C1CCOCC1 [Compound I-44] | 3.5 | –
46 | < 50 | CN(C)Cc1nc(Nc2ccc(-c3cnc4ccc5occc5n34)c3c2C(=O)NC3)ccc1C1(O)CCOCC1 [Compound I-45] | 3.4 | –
47 | < 50 | CN(C)Cc1nc(Nc2cnc(-c3cnn4ccc5occc5c34)c3c2C(=O)NC3)ccc1C1CCOCC1 [Compound I-46] | – | –
48 | < 50 | CN(C)Cc1nc(Nc2ccc(-c3cnc4cnc5occc5n34)c3c2C(=O)NC3)ccc1C1CCOCC1 [Compound I-48] | – | –
49 | < 50 | CN(C)Cc1nc(Nc2ccc(-c3cnc4cnc5occc5n34)c3c2C(=O)NC3)ccc1C1CCOC1 (stereo not drawn) [Compound I-54] | – | –
50 | < 50 | CN(C)Cc1nc(Nc2ccc(-c3cnc4ccc5occc5n34)c3c2C(=O)NC3)ccc1C1CCN(C)C(=O)C1 (stereo not drawn) [Compound I-66] | – | –
51 | < 50 | CN(C)Cc1nc(Nc2ccc(-c3cnc4cnc5occc5n34)c3c2C(=O)NC3)ccc1C1CCN(C)CC1 [Compound I-80] | – | –
